US11945806B2, “Stabilization of amyloidogenic immunoglobulin light chains” (The Scripps Research Institute, priority 2019, dated 2024)

These molecules were tested against WIL-FL (Homo sapiens, UniProt P01721) (assay: Unlabeled LC Protease Sensitivity Assay (proteinase K)). Conditions: small molecule 10 μM, WIL-FL 5 μM, proteinase K 50 nM, 2 hours at 37° C.
Type: biochemical
Protocol: Unlabeled LC Protease Sensitivity Assay. WIL-FL (5 μM) in phosphate-buffered saline (PBS, pH 7.4)+0.02% Pluronic F-127 was incubated with proteinase K (50 nM) with small molecule (10 μM) in 1% DMSO vehicle, or vehicle alone. After 2 hours at 37° C., reactions were quenched with 2 mM phenylmethyl sulfonyl fluoride in methanol and centrifuged at 14,000 rpm for 2 minutes. Remaining WIL-FL was quantified by injecting 10 μL of the supernatant into a Waters Acquity H-Class Bio-UPLC (ultra performance liquid chromatography) instrument equipped with a BEH200 analytical size-exclusion column (1.7 μm, 4.6×150 mm) under isocratic conditions (0.2 mL/min, PBS+1 mM EDTA, 2400 psi backpressure, 15 min), monitoring absorbance at 280 nm. Activity of each compound is given as fold protection from protease=(A_compound−A_vehicle)/(A_no_protease−A_vehicle), where each “A” corresponds to peak integration of the respective treatment.

SMILES | Protection (fold protection of LC from protease)
CCN(CC)c1ccc2c(C)c(CCN3C(=O)NC4(CCN(C(=O)c5cncnc5)CC4)C3=O)c(=O)oc2c1 [Compound 210, 3-(2-(7-(diethylamino)-4-methyl-2-oxo-2H-chromen-3-yl)ethyl)-8-(pyrimidine-5-carbonyl)-1,3,8-triazaspiro[4.5]decane-2,4-dione] | B (3 ≤ B < 0.6)
CCN(CC)c1ccc2c(C)c(CCN3C(=O)NC4(CCN(C(=O)c5cnccn5)C4)C3=O)c(=O)oc2c1 (stereo not shown) [Compound 211, 3-(2-(7-(diethylamino)-4-methyl-2-oxo-2H-chromen-3-yl)ethyl)-7-(pyrazine-2-carbonyl)-1,3,7-triazaspiro[4.4]nonane-2,4-dione] | B (3 ≤ B < 0.6)
CCN(CC)c1ccc2c(C)c(CCNC(=O)NCc3ccc4[nH]ccc4c3)c(=O)oc2c1 [Compound 279, 1-((1H-indol-5-yl)methyl)-3-(2-(7-(diethylamino)-4-methyl-2-oxo-2H-chromen-3-yl)ethyl)urea] | A (A < 0.3))
CCN(CC)c1ccc2c(C)c(CCOC(=O)NCc3ccc(C(F)(F)F)nc3)c(=O)oc2c1 [Compound 101, 2-(7-(diethylamino)-4-methyl-2-oxo-2H-chromen-3-yl)ethyl ((6-(trifluoromethyl)pyridin-3-yl)methyl)carbamate] | A (A < 0.3))
CCN(CC)c1ccc2c(C)c(CCOC(=O)NCc3cccc(-c4ccccc4OS(=O)(=O)F)c3)c(=O)oc2c1 [Compound 219, 3′-((((2-(7-(diethylamino)-4-methyl-2-oxo-2H-chromen-3-yl)ethoxy)carbonyl)amino)methyl)-[1,1′-biphenyl]-2-yl sulfurofluoridate] | A (A < 0.3))
CCN(CC)c1ccc2c(C)c(CCOC(=O)NCc3cccc(-c4c[nH]cn4)c3)c(=O)oc2c1 [Compound 141, 2-(7-(diethylamino)-4-methyl-2-oxo-2H-chromen-3-yl)ethyl (3-(1H-imidazol-4-yl)benzyl)carbamate] | C (C ≥ 0.6)
CCN(CC)c1ccc2c(C)c(CCN3C(=O)NC4(CCN(S(=O)(=O)NC)C4)C3=O)c(=O)oc2c1 (stereo not shown) [Compound 204, 3-(2-(7-(diethylamino)-4-methyl-2-oxo-2H-chromen-3-yl)ethyl)-N-methyl-2,4-dioxo-1,3,7-triazaspiro[4.4]nonane-7-sulfonamide] | B (3 ≤ B < 0.6)
CCN(CC)c1ccc2c(C)c(CCN3C(=O)NC4(CCN(c5ncc(C#N)cn5)CC4)C3=O)c(=O)oc2c1 [Compound 189, 2-(3-(2-(7-(diethylamino)-4-methyl-2-oxo-2H-chromen-3-yl)ethyl)-2,4-dioxo-1,3,8-triazaspiro[4.5]decan-8-yl)pyrimidine-5-carbonitrile] | A (A < 0.3))
CCN(CC)c1ccc2c(C)c(CCOC(=O)NCc3cccc(C(=O)O)c3)c(=O)oc2c1 [Compound 123, 3-((((2-(7-(diethylamino)-4-methyl-2-oxo-2H-chromen-3-yl)ethoxy)carbonyl)amino)methyl)benzoic acid] | B (3 ≤ B < 0.6)
CCN(CC)c1ccc2c(C)c(CCN3C(=O)NC4(CCN(C(=O)c5ncccn5)CC4)C3=O)c(=O)oc2c1 [Compound 206, 3-(2-(7-(diethylamino)-4-methyl-2-oxo-2H-chromen-3-yl)ethyl)-8-(pyrimidine-2-carbonyl)-1,3,8-triazaspiro[4.5]decane-2,4-dione] | A (A < 0.3))
CCN(CC)c1ccc2c(C)c(CCOC(=O)NCc3cccc(C(=N)NO)c3)c(=O)oc2c1 [Compound 170, 2-(7-(diethylamino)-4-methyl-2-oxo-2H-chromen-3-yl)ethyl (3-(N-hydroxycarbamimidoyl)benzyl)carbamate] | C (C ≥ 0.6)
CCN(CC)c1ccc2c(C)c(CCOC(=O)NCc3ccc(F)c(C(N)=O)c3)c(=O)oc2c1 [Compound 144, 2-(7-(diethylamino)-4-methyl-2-oxo-2H-chromen-3-yl)ethyl (3-carbamoyl-4-fluorobenzyl)carbamate] | C (C ≥ 0.6)
CCN(CC)c1ccc2c(C)c(CCN3C(=O)NC4(CCN(c5ncccn5)CC4)C3=O)c(=O)oc2c1 [Compound 185, 3-(2-(7-(diethylamino)-4-methyl-2-oxo-2H-chromen-3-yl)ethyl)-8-(pyrimidin-2-yl)-1,3,8-triazaspiro[4.5]decane-2,4-dione] | C (C ≥ 0.6)
CCN(CC)c1ccc2c(C)c(CCOC(=O)NCc3cccc(-c4nc[nH]c4C)c3)c(=O)oc2c1 [Compound 160, 2-(7-(diethylamino)-4-methyl-2-oxo-2H-chromen-3-yl)ethyl (3-(5-methyl-1H-imidazol-4-yl)benzyl)carbamate] | C (C ≥ 0.6)
CCN(CC)c1ccc2c(C)c(CCOC(=O)N3CCC(CO)C3)c(=O)oc2c1 (stereo not shown) [Compound 106, 2-(7-(diethylamino)-4-methyl-2-oxo-2H-chromen-3-yl)ethyl 3-(hydroxymethyl)pyrrolidine-1-carboxylate] | A (A < 0.3))
CCN(CC)c1ccc2c(C)c(CCOC(=O)N3CC(F)(F)C3)c(=O)oc2c1 [Compound 108, 2-(7-(diethylamino)-4-methyl-2-oxo-2H-chromen-3-yl)ethyl 3,3-difluoroazetidine-1-carboxylate] | A (A < 0.3))

Next, values leading:

Protection (fold protection of LC from protease) | SMILES
A (A < 0.3)) | C=C(C)CNc1ccc2c(C)cc(=O)oc2c1 [Compound 244, 4-methyl-7-((2-methylallyl)amino)-2H-chromen-2-one]
A (A < 0.3)) | C#CCNC(=O)c1ccc2c(C)cc(=O)oc2c1 [Compound 267, 4-methyl-2-oxo-N-(prop-2-yn-1-yl)-2H-chromene-7-carboxamide]
A (A < 0.3)) | Cc1cc(=O)oc2cc(C(=O)Nc3ccnc4ccccc34)ccc12 [Compound 234, 4-methyl-2-oxo-N-(quinolin-4-yl)-2H-chromene-7-carboxamide]
A (A < 0.3)) | C=CCN(C)c1ccc2c(C)cc(=O)oc2c1 [Compound 252, 7-(allyl(methyl)amino)-4-methyl-2H-chromen-2-one]
C (C ≥ 0.6) | CCN(CC)c1ccc2c(C)c(CCOC(=O)NCc3cccc(-c4ccccn4)c3)c(=O)oc2c1 [Compound 154, 2-(7-(diethylamino)-4-methyl-2-oxo-2H-chromen-3-yl)ethyl (3-(pyridin-2-yl)benzyl)carbamate]
A (A < 0.3)) | CCN(CC)c1ccc2c(CCCOC(=O)NCc3ccccc3)cc(=O)oc2c1 [Compound 300, 3-(7-(diethylamino)-2-oxo-2H-chromen-4-yl)propyl benzylcarbamate]
A (A < 0.3)) | Cc1cc(=O)oc2cc(NCCCF)ccc12 [Compound 251, 7-((3-fluoropropyl)amino)-4-methyl-2H-chromen-2-one]
A (A < 0.3)) | Cc1cc(=O)oc2cc(OC(C)c3ccncc3)ccc12 (stereo not shown) [Compound 172, 4-methyl-7-(1-(pyridin-4-yl)ethoxy)-2H-chromen-2-one]
A (A < 0.3)) | Cc1cc(=O)oc2cc(C(=O)Nc3ccc4scnc4c3)ccc12 [Compound 239, N-(benzo[d]thiazol-5-yl)-4-methyl-2-oxo-2H-chromene-7-carboxamide]
